Key:
p53(Y220C) = molecular target: T1, p53(Y220C) (Homo sapiens, UniProt P04637, Y220C); test: In vitro DNA binding assay (HTRF), His-p53 Y220C (94-294) with biotinylated p53 consensus DNA; assay type: biochemical; conditions: HTRF; 27 °C; His-p53 Y220C (94-294) 2.5 nM; biotinylated DNA 10 nM; normalized to 2 μM Ref-1a; EC50 = concentration at 50% Activation; read-out: p53(Y220C) EC50
T1 construct: His-p53 Y220C (94-294) protein
Procedure, shortened: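 His-p53 Y220C (94-294), 2.5 nM, preincubated with compound and anti-His-Tb cryptate 15 min at 25 °C then 60 min at 27 °C; 10 nM biotinylated consensus DNA with streptavidin-d2 added for 60 min more (HEPES pH 7.4, 75 mM KCl). HTRF 665/620 ratio, normalized to 2 μM Ref-1a high control; EC50 from 4-parameter fit.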

p53(Y220C)_NUGC-3 = p53(Y220C)_NUGC-3 (Homo sapiens, UniProt P04637, Y220C); test: Reporter gene assay (NUGC-3_P53_Luc cells); assay type: cell-based; conditions: 6 hours, 37 °C, luciferase, normalized to Ref-1a 10 μM, EC50 = concentration at 50% Activity, read-out: p53(Y220C)_NUGC-3 EC50
Description: NUGC-3_P53_Luc single clonal cell line was established using pGL4.38[luc2P/p53 RE/Hygro] Vector (E365A, promega). NUGC-3_P53_Luc single clonal cells were cultured in 37 °C cell incubator before use. NUGC-3_P53_Luc cells were collected and washed twice with PBS to remove phenol red and then resuspended in medium to a proper concentration. Tested compound dilutions were transferred into 384 well assay plates (PerkinElmer). A desired number of cells was seeded into the assay plate and cultured for 6 hours at 37 °C cell incubator. Britelite plus Luciferase Assay Reagent were added into each well and the luminescence value was recorded on Envision. The percent of activity value of compounds treated wells was normalized between high control and low control. Wells containing cells and Ref-la (10 μM) served as high control, and wells containing cells and same percentage of DMSO served as low control. Activity value (%)=(Luminescence readoutCompound treated−Luminescence readoutLow control)/(Luminescence readoutHigh control−Luminescence readoutLow control)*100%. Then the data were analyzed either by fitting a 4-parameter logistic model or by Excel to calculate EC50 values and the EC50 was the concentration at 50% Activity on the curve.

NUGC-3 (P53 Y220C) = test: Cell viability assay (CellTiter-Glo); assay type: cell-based; conditions: Homo sapiens, 144 h, NUGC-3 cells, 6 days, 37 °C
Description: Cells were collected and counted. A desired number of cells was seeded into 96-well microplate and cultured in 37 °C cell incubator overnight. Compounds dissolved in cell culture medium were added into cell plate and cultured for 6 days. After balancing CellTiter-Glo reagent and cells at room temperature for 30 min, equal volume of CellTiter-Glo reagents was added to assay plate and shaken for 2 min for cell lysis. The cells were balanced at room temperature for 10 minutes and Luminescence signal was read using Envision. The percent of cell viability for compounds treated wells were normalized between High control and low control. Wells containing cell culture medium and same percentage DMSO served as Low control. Wells containing cells and same percentage DMSO served as High control. Cell viability (%)=(Luminescence readoutCompound treated−Luminescence readoutLow control)/(Luminescence readoutHigh control−Luminescence readoutLow control)*100%. Then the data were analyzed either by fitting a 4-parameter logistic model or by Excel to calculate IC50 values. And the IC50 was the concentration at […] Cell viability on the curve.

EC50 (p53(Y220C)): 36 nM
EC50 (p53(Y220C)_NUGC-3): 78 nM
Compound: COc1cc([S@@](C)(=N)=O)ccc1NCC#Cc1sc2c(N[C@H]3CCN(C)C[C@H]3F)cccc2c1[C@@H](O)C(F)(F)F [Example 61, (S)-(4-((3-(7-(((3R,4S)-3-fluoro-1-methylpiperidin-4-yl)amino)-3-((R)-2,2,2-trifluoro-1-hydroxyethyl)benzo[b]thiophen-2-yl)prop-2-yn-1-yl)amino)-3-methoxyphenyl)(imino)(methyl)-16-sulfanone]
IC50 (NUGC-3 (P53 Y220C)): 380 nM

Source: patent US20260374794A1, “COMPOUNDS TARGETING MUTANT OF P53” (JACOBIO PHARMACEUTICALS CO., LTD., priority 2022, published 2026)
